# Measured values taken from patent US20110009265A1, “Herbicidal Compositions Comprising Pyroxasulfone” (BASF SE, priority 2008, published 2011).
# Read-outs that look alike come from different tables or passages of the source.
# Key:
# Format in all cases: in vivo
# Avena fatua (AVEFA) = assay: greenhouse pre-emergence herbicidal activity; details: 125 g ai/ha, read-out: observed % activity
# Excerpt: (§1) For the pre-emergence treatment, directly after sowing the active compounds, which had been suspended or emulsified in water, were applied by means of finely distributed nozzles. The containers were irrigated gently to promote germination and growth and subsequently covered with transparent plastic hoods until plant had rooted. This cover caused uniform germination of the tests plants, unless this was adversely affected by active compounds.
# (§2) The respective herbicides A and/or safener were formulated as 10% by weight strength suspension concentrate and introduced to the spray liquor with the amount of solvent system used for applying the active compound. Herbicide B and/or safener were used as commercially available formulations and introduced to the spray liquor with the amount of solvent system used for applying the active compound. In the examples, the solvent used was water.
# (§3) Pendimethalin was used as a commercial aqueous suspension concentrate having an active ingredient concentration of 400 g/l.
# (§4) The test period extended over 21 days. During this time, the plants were tended, and their response to the treatments with active compound was evaluated.
# (§5) The evaluation for the damage caused by the chemical compositions was carried out using a scale from 0 to 100%, compared to the untreated control plants. Here, 0 means no damage and 100 means complete destruction of the plants.
# (§6) The value E, which is to be expected if the activity of the individual compounds is just additive, was calculated using the method of S. R. Colby (1967) “Calculating synergistic and antagonistic responses of herbicide combinations”, Weeds 15, p. 22 ff.
# (§7) where • X=effect in percent using herbicide A at an application rate a; • Y=effect in percent using herbicide B at an application rate b; • E=expected effect (in %) of A+B at application rates a+b.
# (§8) If the value observed in this manner is higher than the value E calculated according to Colby, a synergistic effect is present.
# Bromus inermis (BROIN) = assay: greenhouse pre-emergence herbicidal activity; details: read-out: observed % activity; for inhibition at 125 g/ha: 125 g ai/ha; for inhibition at 250 g/ha: 250 g ai/ha
# Excerpt: as §1, §2, §3, §4, §5, §6, §7, §8
# [1] = system: Capsella bursa-pastoris (CAPBP); assay: greenhouse pre-emergence herbicidal activity; details: 500 g ai/ha, read-out: observed % activity
# Excerpt: as §1, §2, §3, §4, §5, §6, §7, §8
# Galium aparine (GALAP) = assay: greenhouse pre-emergence herbicidal activity; details: read-out: observed % activity; for inhibition at 125 g/ha: 125 g ai/ha; for inhibition at 250 g/ha: 250 g ai/ha
# Excerpt: as §1, §2, §3, §4, §5, §6, §7, §8
# [2] = system: Phalaris canariensis (PHACA); assay: greenhouse pre-emergence herbicidal activity; details: read-out: observed % activity; for inhibition at 125 g/ha: 125 g ai/ha; for inhibition at 250 g/ha: 250 g ai/ha
# Excerpt: as §1, §2, §3, §4, §5, §6, §7, §8
# Thlaspi arvense (THLAR) [3] = assay: greenhouse pre-emergence herbicidal activity; details: 125 g ai/ha, read-out: observed % activity
# Excerpt: as §1, §2, §3, §4, §5, §6, §7, §8
# Veronica persica (VERPE) = assay: greenhouse pre-emergence herbicidal activity; details: read-out: observed % activity; for inhibition at 250 g/ha: 250 g ai/ha; for inhibition at 500 g/ha: 500 g ai/ha; for inhibition at 1000 g/ha: 1000 g ai/ha
# Excerpt: as §1, §2, §3, §4, §5, §6, §7, §8
# [4] = system: Alopecurus myosuroides (ALOMY); assay: greenhouse post-emergence herbicidal activity; details: 250 g ai/ha; for inhibition at 250 g/ha: Alopecurus myosuroides, read-out: observed % activity
# Excerpt: (§9) For the post-emergence treatment, the test plants were first grown to a height of 3 to 20 cm, depending on the plant habit, and only then treated. Here, the herbicidal compositions were suspended or emulsified in water as distribution medium and sprayed using finely distributing nozzles.
# as §2, §3, §4, §5, §6, §7, §8
# [5] = system: Amaranthus retroflexus (AMARE); assay: greenhouse post-emergence herbicidal activity; details: 500 g ai/ha, 20 DAT
# Excerpt: as §9, §2, §3, §4, §5, §6, §7, §8
# [6] = system: Apera spica-venti (APESV); assay: greenhouse post-emergence herbicidal activity; details: 500 g ai/ha, 20 DAT
# Excerpt: as §9, §2, §3, §4, §5, §6, §7, §8
# [7] = system: Capsella bursa-pastoris (CAPBP); assay: greenhouse post-emergence herbicidal activity; details: 1000 g ai/ha, 20 DAT
# Excerpt: as §9, §2, §3, §4, §5, §6, §7, §8
# Lamium purpureum (LAMPU) = assay: greenhouse post-emergence herbicidal activity; details: 500 g ai/ha, 20 DAT
# Excerpt: as §9, §2, §3, §4, §5, §6, §7, §8
# [8] = system: Matricaria inermis (MATIN); assay: greenhouse post-emergence herbicidal activity; details: 250 g ai/ha, read-out: observed % activity
# Excerpt: as §9, §2, §3, §4, §5, §6, §7, §8
# Stellaria media (STEME) = assay: greenhouse post-emergence herbicidal activity; details: 20 DAT
# Excerpt: as §9, §2, §3, §4, §5, §6, §7, §8
# Thlaspi arvense (THLAR) [9] = assay: greenhouse post-emergence herbicidal activity; details: for inhibition at 250 g/ha: Thlaspi arvense, read-out: observed % activity
# Excerpt: as §9, §2, §3, §4, §5, §6, §7, §8
# Viola arvensis (VIOAR) = assay: greenhouse post-emergence herbicidal activity; details: 500 g ai/ha, 20 DAT
# Excerpt: as §9, §2, §3, §4, §5, §6, §7, §8
structure (smiles),measurement,setting,value
CCC(CC)Nc1c([N+](=O)[O-])cc(C)c(C)c1[N+](=O)[O-] [pendimethalin],inhibition at 125 g/ha,"Avena fatua (AVEFA); 192 h, 8 DAT",0%
same,inhibition at 125 g/ha,"Avena fatua (AVEFA); 480 h, 20 DAT",0%
same,inhibition at 125 g/ha,"Bromus inermis (BROIN); 192 h, 8 DAT",20%
same,inhibition at 250 g/ha,"Bromus inermis (BROIN); 192 h, 8 DAT",20%
same,inhibition at 125 g/ha,"Bromus inermis (BROIN); 480 h, 20 DAT",0%
same,inhibition at 250 g/ha,"Bromus inermis (BROIN); 480 h, 20 DAT",0%
same,inhibition at 500 g/ha,"[1]; 192 h, 8 DAT",50%
same,inhibition at 500 g/ha,"[1]; 480 h, 20 DAT",85%
same,inhibition at 125 g/ha,"Galium aparine (GALAP); 192 h, 8 DAT",0%
same,inhibition at 250 g/ha,"Galium aparine (GALAP); 192 h, 8 DAT",0%
same,inhibition at 125 g/ha,"Galium aparine (GALAP); 480 h, 20 DAT",0%
same,inhibition at 250 g/ha,"Galium aparine (GALAP); 480 h, 20 DAT",0%
same,inhibition at 125 g/ha,"[2]; 192 h, 8 DAT",0%
same,inhibition at 250 g/ha,"[2]; 192 h, 8 DAT",30%
same,inhibition at 125 g/ha,"[2]; 480 h, 20 DAT",0%
same,inhibition at 250 g/ha,"[2]; 480 h, 20 DAT",0%
same,inhibition at 125 g/ha,"Thlaspi arvense (THLAR) [3]; 192 h, 8 DAT",0%
same,inhibition at 125 g/ha,"Thlaspi arvense (THLAR) [3]; 480 h, 20 DAT",20%
same,inhibition at 250 g/ha,"Veronica persica (VERPE); 192 h, 8 DAT",65%
same,inhibition at 500 g/ha,"Veronica persica (VERPE); 192 h, 8 DAT",65%
same,inhibition at 1000 g/ha,"Veronica persica (VERPE); 192 h, 8 DAT",70%
same,inhibition at 250 g/ha,"Veronica persica (VERPE); 480 h, 20 DAT",85%
same,inhibition at 500 g/ha,"Veronica persica (VERPE); 480 h, 20 DAT",85%
same,inhibition at 1000 g/ha,"Veronica persica (VERPE); 480 h, 20 DAT",90%
same,observed activity in % destruction 20 days after treatment,[4]; 20 DAT,45%
same,inhibition at 250 g/ha,"[4]; 168 h, 7 DAT",35%
same,inhibition at 250 g/ha,"[4]; 480 h, 20 DAT",45%
same,observed activity in % destruction 20 days after treatment,[5],80%
same,observed activity in % destruction 20 days after treatment,[6],10%
same,observed activity in % destruction 20 days after treatment,[7],95%
same,observed activity in % destruction 20 days after treatment,Lamium purpureum (LAMPU),90%
same,inhibition at 250 g/ha,"[8]; 168 h, 7 DAT",0%
same,inhibition at 250 g/ha,"[8]; 480 h, 20 DAT",0%
same,observed activity in % destruction 20 days after treatment,Stellaria media (STEME); 250 g ai/ha,85%
same,observed activity in % destruction 20 days after treatment,Stellaria media (STEME); 1000 g ai/ha,90%
same,observed activity in % destruction 20 days after treatment,"Thlaspi arvense (THLAR) [9]; 250 g ai/ha, 20 DAT",80%
same,observed activity in % destruction 20 days after treatment,"Thlaspi arvense (THLAR) [9]; 1000 g ai/ha, 20 DAT",90%
same,inhibition at 250 g/ha,"Thlaspi arvense (THLAR) [9]; 168 h, 250 g ai/ha, 7 DAT",55%
same,inhibition at 250 g/ha,"Thlaspi arvense (THLAR) [9]; 480 h, 250 g ai/ha, 20 DAT",80%
same,observed activity in % destruction 20 days after treatment,Viola arvensis (VIOAR),85%
